Where a name gives a salt, the structure may show the parent alone.
Test system: inflammatory pain
Assay: Randall-Selitto test in rats (carrageenan-induced acute inflammation, mechanical nociceptive threshold)
Format: in vivo
Conditions: rat; for time point of peak effect: substance applied alone, A i.v., paracetamol i.p.
Protocol: The weight ratios of the components (a) and (b) that will lead to a supra-additive effect (synergistic effect) of the inventive pharmaceutical composition may be determined via the test of Randall and Selitto as described in Arch. Int. Pharmacodyn., 1957, 111: 409 to 419, which is a model for inflammatory pain. The respective part of the literature is hereby incorporated by reference and forms part of the present disclosure.
Acute inflammation is induced by an intraplantar injection of 0.1 ml of a carrageenan solution (0.5% in distilled water) into one hind paw. The mechanical nociceptive threshold is measured 4 hours after carrageenan injection using an Algesiometer (Ugo Basile, Italy). The device generates a mechanical force with a linear increase over time. The force is applied to the dorsal surface of the inflamed rat hind paw via a cone-shaped stylus with a rounded tip (2 mm tip diameter). The nociceptive threshold is defined as the force (in grams) at which the rat vocalises (cut-off force 250 g). […] The antinociceptive and antihyperalgesic activity of the tested substance is expressed as percentages of the maximal possible effect (% MPE). The group size is n=10.
The interactions studies presented herein were performed using equieffective doses of the two components, calculated from the ratio of the respective ED50 values of the components if administered alone.
Thus, the time point of ED50 calculation of the combination corresponds to the timepoint of the peak effect of the respective compound.

SMILES | time point of peak effect [min] | ED50 (iv, 0.25 h, i.v., 15 min p. appl. (peak effect), % MPE, n=10, read-out: ED50 of A applied alone) [mg/kg]
CC(=O)Nc1ccc(O)cc1 [Paracetamol] | 120 | –
COc1cccc([C@@]2(O)C[C@H](O)CC[C@@H]2CN(C)C)c1 (racemic) [A, (1RS,3RS,6RS)-6-dimethylaminomethyl-1-(3-methoxy-phenyl)-cyclohexane-1,3-diol hydrochloride] | 15 | 15.8
